# Assays:
# DIO mice [1] = experiment: Long-term administration of PB-119 with PB-721 or PB-722, weight loss and lipids in DIO mice (Example 18); format: in vivo, C57BL/6 mice; settings: for decrease of liver triglyceride content compared with model control group / decrease of serum total cholesterol content / serum triglyceride level: Day21; for decrease of cumulative food intake compared with model control group / body weight decrease compared with that before the administration: 21 days
# Method: Each group was administered subcutaneously, once every two days, and the experiment lasted for 21 days with 11 administrations. During the experimental period, the body weight and food intake of the mice were measured every day. The blood sugar level was measured at Day1 and Day21, and the serum triglyceride serum, total cholesterol, liver triglyceride and other indexes were measured at Day21.
# DIO mice [2] = experiment: Long-term administration of PB-718, PB-119 and PB-708+PB-120, weight loss in DIO mice (Example 17); format: in vivo, C57BL/6 mice; settings: 14 days
# Method: The Victoza group was dosed once a day and the remaining groups were dosed once every 2 days. The continuous administration experiment was conducted for a total of 14 days. During the experimental period, the body weight and food intake of the mice were measured every day. Random blood sugar level was measured before the start of the experiment and after the complement of the experiment.
# DIO mice [3] = experiment: Combination of PB-119 and PB-722, weight loss in DIO mice, 21 days (Example 20); format: in vivo, C57BL/6 mice; settings: 10 nmol/kg once every two days
# Method: Male C57BL/6 mice (from the same source as described above) were fed with high-fat diet (45% kcal) for 22 weeks. […] 36 DIO mice were divided into 6 groups based on their body weight and random blood sugar level, with 6 mice per group. […] Except that administration was carried out twice a day in group 6, administration was carried out once every two days in other groups. The experiment was conducted for a total of 21 days for a continuous administration. The body weight and food intake of the mice were measured on the day of the administration, and random blood sugar level and fasting blood sugar level were measured on the second day after the last administration.
# After 21 days of administration, an oral glucose tolerance experiment was performed. Mice were orally given 2.5 g/kg glucose solution, and random glucose level was measured at 0 min, 15 min, 30 min, 60 min and 120 min after sugar feeding.
# DIO mice [4] = experiment: Long-term administration of PB-716 series conjugates, weight loss in DIO mice (Example 16); format: in vivo, C57BL/6 mice
# Method: […] The continuous administration experiments was conducted for a total of 14 days. During the experimental period, the body weight and food intake of the mice were measured every day. Random blood sugar level was measured before the start of the experiment and after the complement of the experiment.
# [5] = system: nonalcoholic steatohepatitis (NASH) model mice; experiment: Combination of PB-119 and PB-722 in nonalcoholic steatohepatitis (NASH) mouse model (Example 21); format: in vivo, C57/BL6J mice; settings: 10 mg/kg orally once a day, 21 days
# Excerpt: 30 C57/BL6J mice (purchased from Lingchang Biotechnology Co. Ltd., Shanghai, China) were used in this experiment. Twenty four of them were intraperitoneally injected with streptozotocin (STZ) one week after they were born and fed with high-fat diet (purchased from Research Diets, Inc) for five weeks to successfully create a nonalcoholic steatohepatitis (NASH) model. The other 6 were used as normal control and fed with normal diet. The administration started at the sixth week. […] The positive control group was orally administered once a day and the other groups were administered subcutaneously once every two days for 21 consecutive days. During the administration period, body weight was measured every day and the food intake was measured every two days. After the last day of administration, the animals were fasted overnight, and then weighed and euthanized. Serum and liver tissues were taken and the liver weights were measured. Serum glucose and insulin levels were detected. Liver tissue was fixed with formaldehyde solution, and tissue sections were made and stained with HE, oil red and Sirius red. The sections were examined and scored to determine the NASH index.
compound,measurement,setting,value
mPEG-23 KD-ppMAL-PB-105 [PB-119],decrease of liver triglyceride content compared with model control group,DIO mice [1]; 10 nmol/kg alone,12.67%
same,decrease of serum total cholesterol content,DIO mice [1]; 10 nmol/kg alone,39.35%
same,serum triglyceride level,DIO mice [1]; 10 nmol/kg alone,did not significantly improve
same,decrease of cumulative food intake compared with model control group,"DIO mice [1]; 10 nmol/kg alone, s.c. once every two days",25.14%
same,body weight decrease compared with that before the administration,DIO mice [1]; 10 nmol/kg s.c. once every two days,14.37%
same,body weight decrease compared with that before the administration,DIO mice [2]; 210 μg/kg once every 2 days,13.33%
same,decrease of cumulative food intake compared with control group,DIO mice [2]; 210 μg/kg once every 2 days,39.95%
same,decrease of random blood sugar level,DIO mice [2]; 210 μg/kg once every 2 days,27.27%
same,body weight decrease compared with that before the administration,DIO mice [3],16.6%
same,decrease in cumulative food intake compared with control group,DIO mice [3],14.4%
same,fasting blood sugar level decrease compared with that before administration,DIO mice [3],17.9%
mPEG-23 KD-ppMAL--PB-740 (HSQGTFTSDYSKYLDSRRAQDFVQWLMNTC; mPEG-23KD-ppMAL conjugate) [PB-721],decrease of liver triglyceride content compared with model control group,DIO mice [1]; 60 nmol/kg alone,73.29%
same,decrease of serum total cholesterol content,DIO mice [1]; 60 nmol/kg alone,60.86%
same,serum triglyceride level,DIO mice [1]; 60 nmol/kg alone,did not significantly improve
same,decrease of cumulative food intake compared with model control group,"DIO mice [1]; 60 nmol/kg alone, s.c. once every two days",2.36%
same,body weight decrease compared with that before the administration,"DIO mice [1]; alone, 60 nmol/L as printed, s.c. once every two days",21.65%
"CCCCCCCCCCCCCCCC(=O)N[C@@H](CCC(=O)NCCCC[C@H](NC(=O)[C@H](C)NC(=O)[C@H](C)NC(=O)[C@H](CCC(N)=O)NC(=O)CNC(=O)[C@H](CCC(=O)O)NC(=O)[C@H](CC(C)C)NC(=O)[C@H](Cc1ccc(O)cc1)NC(=O)[C@H](CO)NC(=O)[C@H](CO)NC(=O)[C@@H](NC(=O)[C@H](CC(=O)O)NC(=O)[C@H](CO)NC(=O)[C@@H](NC(=O)[C@H](Cc1ccccc1)NC(=O)[C@@H](NC(=O)CNC(=O)[C@H](CCC(=O)O)NC(=O)[C@H](C)NC(=O)[C@@H](N)Cc1cnc[nH]1)[C@@H](C)O)[C@@H](C)O)C(C)C)C(=O)N[C@@H](CCC(=O)O)C(=O)N[C@@H](Cc1ccccc1)C(=O)N[C@H](C(=O)N[C@@H](C)C(=O)N[C@@H](Cc1c[nH]c2ccccc12)C(=O)N[C@@H](CC(C)C)C(=O)N[C@H](C(=O)N[C@@H](CCCNC(=N)N)C(=O)NCC(=O)N[C@@H](CCCNC(=N)N)C(=O)NCC(=O)O)C(C)C)[C@@H](C)CC)C(=O)O [Victoza, reference compound]",body weight decrease compared with that before the administration,"DIO mice [4]; 200 μg/kg once a day, 14 days",15.83%
same,decrease of cumulative food intake relative to model control group,"DIO mice [4]; 200 μg/kg once a day, end of 14-day continuous administration",50.82%
same,body weight compared with control group by 96 hours after first administration,"DIO mice [4]; Victoza 200 μg/kg, single administration",no significant difference
same,body weight decrease compared with that before the administration,DIO mice [2]; 200 μg/kg once a day,15.92%
CCCc1nc2c(C)cc(-c3nc4ccccc4n3C)cc2n1Cc1ccc(-c2ccccc2C(=O)O)cc1 [telmisartan],blood sugar level,[5],no effect
